Among the data in EP0398427A1, “Antirhinoviral pyridazinamines” (priority 1989, dated 1990) are IC50 values, retold here.

In brackets after ≈: the same amount, converted by molar mass.

Assay [1] concerns Human Rhinovirus serotypes HRV- 2,-29,-39,-85,-9,-15,-51,-59,-63,-89 and -41. In words: Picornavirus Minimal Inhibitory Concentration test (cytopathic effect reduction assay), first panel of rhinoviruses. In kind it is cell-based. As to conditions: Human rhinovirus sp., HeLa, read-out: Med₁. On the procedure: (§1) The Minimal Inhibitory Concentration of the compounds of the present invention against the Human Rhinovirus strains (HRV) -2,-9,-14,-15,-29,-39,-41,-42,-45,-51 -59,-63,-70,-72-,-85,-86 and -89 was determined by a standard cytophatic effect reduction assay as follows. To each of the ninty six (96) wells of a microtiter 96 well tissue culture plate there was added 60 µl of a Ohio Hela cell maintenance medium [Eagle's Basal medium supplemented with 5% Foetal Calf Serum (FCS)]. To two wells there was added 60 µl of an appropriate starting dilution of a compound of formula (I) and two-fold dilutions were made to cover a wide range of compound concentrations. Subsequently there were added 120 µl of an infectious solution of virus in Eagle's Basal Medium with 2% Hepes buffer, 2% FCS and 30 mM MgCl₂ to all wells except cell and compound controls. Said infectious virus solution having a TCID₅₀-value (Tissue Culture Infectious Dose) of about 100.
(§2) The TCID₅₀-value is the dose of viruses which initiates a cytopathic effect in 50% of the inoculated cells. 150 µl of the thus obtained virus-compound mixtures were then transferred to microtitre plates with subconfluent Ohio Hela Cells, grown in 100 µl of maintenance medium. Appropriate virus controls, cell controls and compound controls were included in each test. Plates were incubated for 3 to 5 days at 33°C in 5% CO₂ atmosphere. […] The IC₅₀-value for each virus-compound series was taken as the concentration in ng/ml that protected 50% of the cells from cytopathic effects with respect to the untreated controls. In the standard test procedure, the compounds were tested against a first panel of rhinoviruses consisting of serotypes HRV- 2,-29,-39,-85,-9,-15,-51,-59,-63,-89 and -41 and the other panel consisting of HRV-42,-45,-14,-70,-72 and -86.
(§3) The IC₅₀-value for each rhinovirus serotype was determined, and the efficacy of each compound was determined in terms of the Med₁-value and Med₂-value, which is the medium value of the IC₅₀-values of all serotypes from the first and second panel respectively.
A general note: Damage to the host cells serves as the signal in cytopathic effect assays.

In assay [2] the test system is HRV-42,-45,-14,-70,-72 and -86. The assay is described as follows: Picornavirus Minimal Inhibitory Concentration test (cytopathic effect reduction assay), second panel of rhinoviruses. The class given is cell-based. As to conditions: Human rhinovirus sp., HRV42, HeLa, read-out: Med₂. On the procedure:
as §1, §2, §3

As for `CCOC(=O)c1ccc2nc(CC3CCN(c4ccc(Cl)nn4)CC3)sc2c1` [Compound 2, ethyl 2-[[1-(6-chloro-3-pyridazinyl)-4-piperidinyl]methyl]-6-benzothiazolecarboxylate], the results for the IC50 in assay [1] and in assay [2] were 0.031 µg/mL (≈ 0.0744 µM) and 0.067 µg/mL (≈ 0.161 µM), respectively.

Consider `CCOC(=O)c1ccc2oc(CCC3CCN(c4ccc(Cl)nn4)CC3)nc2c1` [Compound 4, ethyl 2-[2-[1-(6-chloro-3-pyridazinyl)-4-piperidinyl]ethyl]-5-benzoxazolecarboxylate], for which the IC50 in assay [1] was determined as 0.088 µg/mL (≈ 0.212 µM); in assay [2], 0.039 µg/mL (≈ 0.094 µM).

Regarding `CCOC(=O)c1ccc(OCCC2CCN(c3ccc(C)nn3)CC2)s1` [Compound 7, ethyl 5-[2-[1-(6-methyl-3-pyridazinyl)-4-piperidinyl]ethoxy]-2-thiophenecarboxylate], the IC50 turned out to be 0.007 µg/mL (≈ 0.0186 µM) in assay [1] and 0.185 µg/mL (≈ 0.493 µM) in assay [2].
